From patent US8124380B2 (priority 2003, dated 2012)
Values joined by “and” are separate entries in the source; they are usually repeats but may differ in a detail not shown here. Equal values may be shown once.

Tests used:
LPS 2a = system: LPS 2a; design: species or system mice; conditions: in vivo
mIgG C1-7 = type: binding, murine
mIgG E4-1 = type: binding, murine
mIgG A2-1 = type: binding, murine
mIgG D15-7 = type: binding, murine
mIgG F22-4 = type: binding, murine
[1] = system: mIgG F22-4, D15-7, A2-1, E4-1, C1-7; type: binding, murine

Row | Compound | Anti-LPS 2a antibody titer, individual mouse (1) (LPS 2a) | Anti-LPS 2a antibody titer, individual mouse (2) (LPS 2a) | IC50 (mIgG C1-7) [µM] | IC50 (mIgG E4-1) | IC50 (mIgG A2-1) [µM] | IC50 (mIgG D15-7) [µM] | IC50 (mIgG F22-4) | fold increase in binding (mIgG A2-1) [fold] | improving Ab binding by a factor (mIgG E4-1) | gain in recognition / binding improvement by a factor (mIgG A2-1) | improving Ab binding by a factor (mIgG D15-7) | recognition (binding) by the mIgG [1]
1 | TT: tetanus toxoid alone (140 μg/mice/injection), control [reference compound] | 0 | 0 | – | – | – | – | – | – | – | – | – | –
2 | COC1OC(C)C(OC2OC(CO)C(O)C(O)C2O)C(OC2OC(C)C(O)C(O)C2O)C1O (stereo not shown) [B(E)C] | – | – | > 1000 | > 1000 µM | > 1000 | > 1000 | > 1000 µM | – | – | – | – | –
3 | CO[C@@H]1O[C@H](CO)[C@@H](O)[C@H](O[C@@H]2O[C@@H](C)[C@H](O[C@H]3O[C@H](CO)[C@@H](O)[C@H](O)[C@H]3O)[C@@H](O[C@@H]3O[C@@H](C)[C@H](O)[C@@H](O)[C@H]3O[C@@H]3O[C@@H](C)[C@H](O)[C@@H](O)[C@H]3O)[C@H]2O)[C@H]1NC(C)=O [AB(E)CD, Methyl α-L-rhamnopyranosyl-(1→2)-α-L-rhamnopyranosyl-(1→3)-[α-D-glucopyranosyl-(1→4)]-α-L-rhamnopyranosyl-(1→3)-2-acetamido-2-deoxy-β-D-glucopyranoside] | – | – | 734 | 287 µM and 288 µM | 378 | 490 | 21 µM and 21.6 µM | – | – | – | – | –
4 | COC1OC(C)C(OC2OC(CO)C(O)C(O)C2O)C(OC2OC(C)C(O)C(O)C2OC2OC(C)C(O)C(O)C2OC2OC(CO)C(O)C(OC3OC(C)C(OC4OC(CO)C(O)C(O)C4O)C(OC4OC(C)C(O)C(O)C4OC4OC(C)C(O)C(O)C4OC4OC(CO)C(O)C(O)C4NC(C)=O)C3O)C2NC(C)=O)C1O [DA B(E)CDA B(E)C, Methyl (2-acetamido-2-deoxy-β-D-glucopyranosyl)-(1→2)-(α-L-rhamnopyranosyl)-(1→2)-(α-L-rhamnopyranosyl)-(1→3)-[α-D-glucopyranosyl-(1→4)]-(α-L-rhamnopyranosyl)-(1→3)-(2-acetamido-2-deoxy-β-D-glucopyranosyl)-(1→2)-(α-L-rhamnopyranosyl)-(1→2)-(α-L-rhamnopyranosyl)-(1→3)-[α-D-glucopyranosyl-(1→4)]-α-L-rhamnopyranoside] | – | – | 19 | 4.4 µM | 3 | 11.9 | 5 µM | 100 | – | – | – | –
5 | CO[C@@H]1O[C@@H](C)[C@H](O)[C@@H](O)[C@H]1O[C@@H]1O[C@@H](C)[C@H](O)[C@@H](O)[C@H]1O[C@@H]1O[C@H](CO)[C@@H](O)[C@H](O[C@@H]2O[C@@H](C)[C@H](O[C@H]3O[C@H](CO)[C@@H](O)[C@H](O)[C@H]3O)[C@@H](O)[C@H]2O)[C@H]1NC(C)=O [(E)CDAB, Methyl α-D-glucopyranosyl-(1→4)-α-L-rhamnopyranosyl-(1→3)-2-acetamido-2-deoxy-β-D-glucopyranosyl-(1→2)-α-L-rhamnopyranosyl-(1→2)-α-L-rhamnopyranoside] | – | – | > 1000 | > 1000 µM | > 1000 | > 1000 | 354 µM | – | – | – | – | –
6 | COC1OC(C)C(OC2OC(CO)C(O)C(O)C2O)C(OC2OC(C)C(O)C(O)C2OC2OC(C)C(O)C(O)C2OC2OC(CO)C(O)C(OC3OC(C)C(OC4OC(CO)C(O)C(O)C4O)C(OC4OC(C)C(O)C(O)C4O)C3O)C2NC(C)=O)C1O (stereo not shown) [B(E)CDA B(E)C] | – | – | 242 | 12 µM | 12.9 | 60.8 | 0.22 µM | – | ~4 | ~25 | ~4 | –
7 | CO[C@@H]1O[C@H](CO)[C@@H](O)[C@H](O[C@@H]2O[C@@H](C)[C@H](O[C@H]3O[C@H](CO)[C@@H](O)[C@H](O)[C@H]3O)[C@@H](O[C@@H]3O[C@@H](C)[C@H](O)[C@@H](O)[C@H]3O)[C@H]2O)[C@H]1NC(C)=O [B(E)CD, Methyl α-L-rhamnopyranosyl-(1→3)-[α-D-glucopyranosyl-(1→4)]-α-L-rhamnopyranosyl-(1→3)-2-acetamido-2-deoxy-β-D-glucopyranoside] | – | – | > 1000 | 87 µM | > 1000 | 198 | 5 µM | – | – | – | – | –
8 | COC1OC(C)C(OC2OC(CO)C(O)C(O)C2O)C(OC2OC(C)C(O)C(O)C2OC2OC(C)C(O)C(O)C2OC2OC(CO)C(O)C(O)C2NC(C)=O)C1O (stereo not shown) [DAB(E)C] | – | – | > 1000 | > 1000 µM | > 1000 | > 1000 | > 1000 µM | – | – | – | – | absence of recognition
9 | COC1OC(C)C(O)C(O)C1OC1OC(CO)C(O)C(OC2OC(C)C(OC3OC(CO)C(O)C(O)C3O)C(O)C2O)C1NC(C)=O (stereo not shown) [(E)CDA] | – | – | > 1000 | > 1000 µM | > 1000 | > 1000 | 181 µM | – | – | – | – | –
10 | CO[C@@H]1O[C@@H](C)[C@H](O)[C@@H](O)[C@H]1O[C@@H]1O[C@H](CO)[C@@H](O)[C@H](O[C@@H]2O[C@@H](C)[C@H](O[C@H]3O[C@H](CO)[C@@H](O)[C@H](O)[C@H]3O)[C@@H](O[C@@H]3O[C@@H](C)[C@H](O)[C@@H](O)[C@H]3O)[C@H]2O)[C@H]1NC(C)=O [B(E)CDA] | – | – | 400 | 75 µM | 350 | 240 | 2.5 µM | – | – | – | – | –
